# Reference: US8268836B2, “Compound useful as a c-Met inhibitor” (Eli Lilly and Company, priority 2010, dated 2012)
# Read-outs that look alike come from different tables or passages of the source.
# Experiments:
# [1] = tested on: KP4 pancreatic xenografts; assay: Xenograft tumor model KP4; format: in vivo, mice
# Description: (§1) Human glioblastoma cells U87MG, human gastric cancer cells MKN45, or human pancreatic KP4 cells are cultured and implanted subcutaneously in the rear flank of female CD-1 nu/nu strain mice which have been acclimated for one week in the animal facility after receipt from the vendor. Mice are randomized into groups of 10 mice per group. Testing compound is prepared in an appropriate vehicle and is administered by oral gavage when tumors are established (7-21 days after implant, or when the mean tumor volume reaches ˜100 mm^3). Tumor response is determined by tumor volume measurement performed twice a week during the course of treatment. Fluctuations in body weight are also monitored as a general measurement of toxicity. The compound of example 1 is orally administered twice a day for 28 days.
# (§2) For statistical analysis, the individual subject tumor volumes are transformed to log volume and are analyzed with a two-way repeated measures analysis of variance by time and treatment using the MIXED procedures in SAS software (version 8.2). The correlation model for the repeated measures is spatial power. Treated groups are compared to the control group at the final time point. The MIXED procedure is also used separately for each treatment group to calculate adjusted means and standard errors at each time point. Both analyses account for the autocorrelation within each subject.
# MKN45 gastric xenografts = assay: Xenograft tumor model MKN45; format: in vivo, mice
# Description: as §1, §2
# [2] = tested on: U87MG glioblastoma xenografts; assay: Xenograft tumor model U87MG; format: in vivo, mice
# Description: as §1, §2
# Dynamic solubility = format: physicochemical; conditions: for solubility at 18 h: thermodynamic from solid
# Description: The media included simulated gastric fluid (SGF) which comprise of 0.01N HCl, 0.05% sodium lauryl sulfate, and 0.2% NaCl; fasted state simulated intestinal fluid (SIF-fasted) which composed of 29 mM NaH2PO4, 3 mM Na taurocholate, 0.75 mM lecithin, 103 mM NaCl, and NaOH to pH 6.5; fed state simulated intestinal fluid (SIF-fed) which comprise of 144 mM acetic acid, 15 mM Na taurocholate, 3.75 mM lecithin, 204 mM NaCl, and NaOH to pH 5.0; and pH 4.5, 6, 7.5 buffers which are 28-56 mM phosphate buffers. The compound concentrations are determined using Agilent 1200 HPLC (LC5) with a UV detector. Mobile phase uses A (85%) which is water containing 0.1% TFA and B (15%) which is ACN at a flow rate of 1 mL/min and run time of 10 min. Column of Zorbax, Bonus-RP (3.5 μm, 4.6×75 mm; SN: USTM002428) is used in the studies.
# [3] = Kinetic solubility screen (nephelometry); format: physicochemical
# Description: The assay is used to determine the concentration range in which a compound that has been pre-solubilized in DMSO at 10 mM will precipitate from a solution. The assay is conducted in a screening format on a 96-well plate and measures the nephelometry (light scattering) from precipitated compound in aqueous phosphate buffer (50 mM; pH 7.4). This method consists of a 2-hour RT (room temperature) incubation of compound in buffer at concentrations of 10, 20, 40, 60, 80, and 100 μM (where % DMSO is kept constant). Plates are pre-read by the nephelometer to determine if scratches or dust particles are present and this is used for background subtraction. The reported values are the concentrations at which the last soluble and first insoluble are achieved. These assays are not optimized to assess equilibrium solubility or determine a “true” kinetic solubility.
# [4] = 2 mg/kg oral twice a day for 28 days
# [5] = 4 mg/kg oral twice a day for 28 days
# [6] = 8 mg/kg oral twice a day for 28 days
# [7] = 16 mg/kg oral twice a day for 28 days
# [8] = 32 mg/kg oral twice a day for 28 days
compound,measurement,setting,value
"Cn1cc(-c2ccc3nnc(Sc4ccc5nn(C)cc5c4)n3n2)cn1 [Example 1, 6-(1-Methyl-1H-pyrazol-4-yl)-3-(2-methyl-2H-indazol-5-ylthio)-[1,2,4]triazolo[4,3-b]pyridazine]",Mean Tumor Volume ± Standard Error,[1]; [4],1229 ± 83 mm^3
same,Mean Tumor Volume ± Standard Error,[1]; [5],1085 ± 256 mm^3
same,Mean Tumor Volume ± Standard Error,[1]; [6],627 ± 74 mm^3
same,Mean Tumor Volume ± Standard Error,[1]; [7],554 ± 47 mm^3
same,Mean Tumor Volume ± Standard Error,[1]; [8],273 ± 42 mm^3
same,Mean Tumor Volume ± Standard Error,MKN45 gastric xenografts; [5],329 ± 54 mm^3
same,Mean Tumor Volume ± Standard Error,MKN45 gastric xenografts; [6],296 ± 29 mm^3
same,Mean Tumor Volume ± Standard Error,MKN45 gastric xenografts; [7],166 ± 10 mm^3
same,Mean Tumor Volume ± Standard Error,MKN45 gastric xenografts; [8],161 ± 14 mm^3
same,Mean Tumor Volume ± Standard Error,[2]; [4],271 ± 61 mm^3
same,Mean Tumor Volume ± Standard Error,[2]; [5],137 ± 29 mm^3
same,Mean Tumor Volume ± Standard Error,[2]; [6],108 ± 16 mm^3
same,Mean Tumor Volume ± Standard Error,[2]; [7],116 ± 19 mm^3
same,Mean Tumor Volume ± Standard Error,[2]; [8],46 ± 4 mm^3
same,solubility at 18 h,"Dynamic solubility; 0.01N HCl, simulated gastric fluid, read-out: Dynamic solubility, 0.01N HCl",11 µg/mL
same,solubility at 18 h,"Dynamic solubility; 0.1N HCl, simulated gastric fluid, read-out: Dynamic solubility, 0.1N HCl",33 µg/mL
same,"fold more soluble than the reference compound, SIF fasted",Dynamic solubility; SIF fasted state,approximately 13 fold
same,"fold more soluble than the reference compound, SIF fed",Dynamic solubility; SIF fed state,~14 fold
same,solubility at 18 h,"Dynamic solubility; aqueous buffer, pH ≧ 4 phosphate buffer, read-out: Dynamic solubility, pH ≧ 4 buffer",~10 µg/mL
same,solubility at 18 h,"Dynamic solubility; fassif, fasted state simulated intestinal fluid pH 6.5, 18 h ambient, read-out: Dynamic solubility, SIF Fasted",13 µg/mL
same,solubility at 18 h,"Dynamic solubility; fessif, fed state simulated intestinal fluid pH 5.0, 18 h ambient, read-out: Dynamic solubility, SIF Fed",70 µg/mL
same,solubility at 18 h,"Dynamic solubility; simulated gastric fluid, 18 h ambient, read-out: Dynamic solubility, SGF",52 µg/mL
same,solubility at 18 h,"Dynamic solubility; water, read-out: Dynamic solubility, Water",9 µg/mL
same,1st insoluble pH 7.4,"[3]; 50 mM phosphate buffer pH 7.4, 2 h RT, from 10 mM DMSO",Non detect
same,solubility at 2 h,"[3]; aqueous phosphate buffer, aqueous buffer, kinetic from dmso stock, 50 mM phosphate buffer pH 7.4, 2 h RT, from 10 mM DMSO, read-out: Last soluble pH 7.4",> 100 µM
same,fold more soluble than the reference compound in pH 7.4 buffer,[3]; kinetic solubility screen pH 7.4,at least 3 fold
